Experiment in all cases: G' assay (10 uM PL peptide), results of TABLE 7 and TABLE 12
Holding throughout (type): binding

Test [1] has as its target T1, PDZ protein (GST-PDZ fusion) (Homo sapiens, UniProt O15085).
T1 construct: made in house; host or cells: E. coli (DH5alpha, BL21 or JM109)
Conditions: PDZ KIAA0380, PDZ Domain 1. The method in brief:
(§1)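 Same steps as the G-zero format, apart from a peptide concentration of 10 uM in place of 20 uM in step 2. Amino-terminally biotinylated PL peptides bind GST-PDZ fusions, and retained peptide is quantified by 450 nm absorbance.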

In test [2] the target is T2, PDZ protein (GST-PDZ fusion) (Homo sapiens, UniProt Q9Y3R0).
T2 construct: made in house; host or cells: E. coli (DH5alpha, BL21 or JM109)
T2 sequence (Q9Y3R0 1-1128): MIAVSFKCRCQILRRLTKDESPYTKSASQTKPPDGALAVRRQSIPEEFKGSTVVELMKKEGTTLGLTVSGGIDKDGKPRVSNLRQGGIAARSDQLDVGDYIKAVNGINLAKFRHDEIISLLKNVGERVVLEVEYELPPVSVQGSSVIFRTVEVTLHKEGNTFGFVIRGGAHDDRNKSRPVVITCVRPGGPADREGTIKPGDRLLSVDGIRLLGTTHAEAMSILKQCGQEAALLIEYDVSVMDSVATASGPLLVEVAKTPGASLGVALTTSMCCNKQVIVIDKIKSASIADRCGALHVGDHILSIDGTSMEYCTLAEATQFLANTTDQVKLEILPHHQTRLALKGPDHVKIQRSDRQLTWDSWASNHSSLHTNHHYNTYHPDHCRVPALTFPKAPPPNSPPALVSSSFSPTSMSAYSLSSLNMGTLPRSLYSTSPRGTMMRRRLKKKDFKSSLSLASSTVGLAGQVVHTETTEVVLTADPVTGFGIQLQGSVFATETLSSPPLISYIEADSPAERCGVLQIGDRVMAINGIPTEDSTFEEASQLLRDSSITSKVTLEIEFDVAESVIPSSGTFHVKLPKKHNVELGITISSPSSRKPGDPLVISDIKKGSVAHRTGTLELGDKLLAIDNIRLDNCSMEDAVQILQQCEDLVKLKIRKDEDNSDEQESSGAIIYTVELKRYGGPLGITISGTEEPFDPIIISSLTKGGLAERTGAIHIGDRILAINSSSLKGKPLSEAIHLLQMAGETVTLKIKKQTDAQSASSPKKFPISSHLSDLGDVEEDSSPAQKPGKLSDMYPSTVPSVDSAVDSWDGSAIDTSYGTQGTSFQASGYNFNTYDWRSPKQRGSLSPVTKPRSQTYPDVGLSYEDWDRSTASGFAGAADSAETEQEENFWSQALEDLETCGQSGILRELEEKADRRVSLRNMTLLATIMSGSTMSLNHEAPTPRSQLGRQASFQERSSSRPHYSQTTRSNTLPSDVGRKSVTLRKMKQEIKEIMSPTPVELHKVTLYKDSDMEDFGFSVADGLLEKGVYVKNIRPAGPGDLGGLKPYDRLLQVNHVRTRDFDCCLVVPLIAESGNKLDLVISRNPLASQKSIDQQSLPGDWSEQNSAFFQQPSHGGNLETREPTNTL
The method, boiled down: as §1

Test [3] has as its target T3, PDZ protein (GST-PDZ fusion) (Homo sapiens, UniProt Q9C0E4).
T3 construct: made in house; host or cells: E. coli (DH5alpha, BL21 or JM109)
The method in brief:
as §1

Ends that are not written are not given here. Peptide text beside a SMILES is read from it. * marks the point of attachment. Biotin = O=C1N[C@H]2[C@H](CS[C@H]2CCCCC(=O)*)N1

T3 sequence (Q9C0E4 whole entry, the tested form may be a part): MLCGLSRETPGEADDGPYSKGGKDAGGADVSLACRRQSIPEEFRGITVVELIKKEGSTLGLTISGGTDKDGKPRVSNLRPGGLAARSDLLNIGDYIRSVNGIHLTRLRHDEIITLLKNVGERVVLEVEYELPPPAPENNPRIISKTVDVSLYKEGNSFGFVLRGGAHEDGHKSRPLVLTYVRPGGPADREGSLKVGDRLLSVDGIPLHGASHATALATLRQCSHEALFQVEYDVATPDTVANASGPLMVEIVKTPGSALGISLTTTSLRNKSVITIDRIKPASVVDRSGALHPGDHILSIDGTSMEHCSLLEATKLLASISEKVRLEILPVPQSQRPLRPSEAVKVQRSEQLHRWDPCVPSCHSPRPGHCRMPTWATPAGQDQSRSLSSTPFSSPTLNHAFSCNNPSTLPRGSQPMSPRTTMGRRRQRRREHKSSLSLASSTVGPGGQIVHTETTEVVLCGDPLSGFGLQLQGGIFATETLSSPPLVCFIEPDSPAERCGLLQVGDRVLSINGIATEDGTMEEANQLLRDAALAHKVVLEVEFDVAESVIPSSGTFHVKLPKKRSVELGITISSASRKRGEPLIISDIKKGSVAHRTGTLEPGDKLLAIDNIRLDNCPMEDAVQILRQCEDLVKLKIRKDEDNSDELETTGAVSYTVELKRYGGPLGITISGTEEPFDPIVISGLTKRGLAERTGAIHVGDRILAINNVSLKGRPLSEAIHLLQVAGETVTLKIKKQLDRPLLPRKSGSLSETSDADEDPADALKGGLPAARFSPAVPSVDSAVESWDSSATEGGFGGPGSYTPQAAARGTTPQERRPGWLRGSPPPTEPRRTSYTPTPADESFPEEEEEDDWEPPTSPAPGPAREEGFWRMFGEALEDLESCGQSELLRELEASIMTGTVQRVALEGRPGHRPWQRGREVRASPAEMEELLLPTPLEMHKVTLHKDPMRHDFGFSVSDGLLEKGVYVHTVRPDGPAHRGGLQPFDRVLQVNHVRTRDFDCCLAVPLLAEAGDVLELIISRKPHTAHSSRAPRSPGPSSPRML
T1 sequence (O15085 whole entry, the tested form may be a part): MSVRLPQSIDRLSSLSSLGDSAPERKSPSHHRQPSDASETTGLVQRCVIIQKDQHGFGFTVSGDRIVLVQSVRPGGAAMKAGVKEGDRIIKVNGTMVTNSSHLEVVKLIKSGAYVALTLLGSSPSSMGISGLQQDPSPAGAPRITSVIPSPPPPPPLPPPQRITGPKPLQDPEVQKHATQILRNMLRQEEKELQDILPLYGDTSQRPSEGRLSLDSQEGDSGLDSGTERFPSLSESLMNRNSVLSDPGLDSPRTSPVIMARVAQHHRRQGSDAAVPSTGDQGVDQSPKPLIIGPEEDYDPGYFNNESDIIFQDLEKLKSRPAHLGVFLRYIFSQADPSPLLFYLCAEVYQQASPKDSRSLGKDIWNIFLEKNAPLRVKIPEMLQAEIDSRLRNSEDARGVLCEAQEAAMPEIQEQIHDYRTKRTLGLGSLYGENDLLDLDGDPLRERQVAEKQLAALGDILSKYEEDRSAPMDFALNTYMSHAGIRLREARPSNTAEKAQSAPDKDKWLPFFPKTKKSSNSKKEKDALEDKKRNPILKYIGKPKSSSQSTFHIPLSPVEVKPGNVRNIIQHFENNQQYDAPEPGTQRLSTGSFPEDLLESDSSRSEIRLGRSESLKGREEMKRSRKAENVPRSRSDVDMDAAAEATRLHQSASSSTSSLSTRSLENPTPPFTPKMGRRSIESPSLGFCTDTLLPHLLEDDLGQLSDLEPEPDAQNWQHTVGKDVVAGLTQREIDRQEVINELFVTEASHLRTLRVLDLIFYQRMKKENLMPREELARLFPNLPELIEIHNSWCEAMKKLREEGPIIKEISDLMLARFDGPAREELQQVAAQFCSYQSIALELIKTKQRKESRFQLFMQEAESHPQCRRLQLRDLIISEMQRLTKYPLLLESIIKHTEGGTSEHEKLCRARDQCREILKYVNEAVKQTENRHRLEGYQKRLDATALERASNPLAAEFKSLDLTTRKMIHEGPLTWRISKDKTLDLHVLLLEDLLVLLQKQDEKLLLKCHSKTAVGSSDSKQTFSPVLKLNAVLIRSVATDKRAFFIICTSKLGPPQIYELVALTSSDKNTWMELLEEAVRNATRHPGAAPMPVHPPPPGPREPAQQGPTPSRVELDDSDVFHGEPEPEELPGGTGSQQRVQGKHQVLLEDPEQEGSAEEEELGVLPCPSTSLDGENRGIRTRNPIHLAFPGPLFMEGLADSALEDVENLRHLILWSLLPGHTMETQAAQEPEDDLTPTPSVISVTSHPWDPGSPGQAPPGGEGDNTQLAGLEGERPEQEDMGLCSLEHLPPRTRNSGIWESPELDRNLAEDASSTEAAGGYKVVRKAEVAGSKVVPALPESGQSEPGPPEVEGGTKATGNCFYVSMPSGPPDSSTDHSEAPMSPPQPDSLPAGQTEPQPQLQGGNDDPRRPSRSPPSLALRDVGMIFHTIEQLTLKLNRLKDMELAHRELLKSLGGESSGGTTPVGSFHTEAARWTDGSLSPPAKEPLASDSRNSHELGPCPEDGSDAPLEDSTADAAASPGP

Take “ARHRVTSYTSSSVNVSSNL (Biotin-ARHRVTSYTSSSVNVSSNL) [IL-8RB]”: the Classification in test [1] is on record as 1 (A450 nm 0-1).
Turning to `CC(C)C[C@H](NC(=O)[C@H](C)NC(=O)[C@@H](NC(=O)[C@@H](NC(=O)[C@H](Cc1c[nH]cn1)NC(=O)[C@H](CC(C)C)NC(=O)CNC(=O)[C@H](CCC(N)=O)NC(=O)CNC(=O)CNC(=O)[C@H](C)NC(=O)[C@H](C)NC(=O)[C@H](CCCNC(=N)N)NC(=O)[C@H](C)NC(=O)[C@H](CO)NC(=O)[C@H](CC(=O)O)NC(=O)[C@H](CC(=O)O)NC(=O)[C@H](Cc1c[nH]c2ccccc12)NC(=O)[C@H](C)NC(=O)CCCC[C@@H]1SC[C@@H]2NC(=O)N[C@@H]21)C(C)C)[C@@H](C)O)C(=O)O` [LPAP] (Biotin-AWDDSARAAGGQGLHVTAL-OH; C-terminus assumed), the Classification in test [2] (PDZ GRIP1, PDZ Domain 3) is 1 (A450 nm 0-1).
Regarding `CC[C@H](C)[C@H](NC(=O)[C@H](C)NC(=O)[C@H](CC(C)C)NC(=O)[C@H](Cc1c[nH]c2ccccc12)NC(=O)[C@H](Cc1c[nH]cn1)NC(=O)[C@H](CCC(N)=O)NC(=O)[C@H](CC(C)C)NC(=O)[C@H](CCC(N)=O)NC(=O)[C@H](Cc1ccccc1)NC(=O)[C@H](CCC(N)=O)NC(=O)[C@H](CCCNC(=N)N)NC(=O)[C@@H](NC(=O)[C@H](CC(=O)O)NC(=O)[C@H](CCCNC(=N)N)NC(=O)[C@H](CCC(N)=O)NC(=O)[C@H](C)NC(=O)[C@@H](NC(=O)[C@H](CC(C)C)NC(=O)[C@H](Cc1c[nH]cn1)NC(=O)[C@H](Cc1c[nH]cn1)NC(=O)CCCC[C@@H]1SC[C@@H]2NC(=O)N[C@@H]21)C(C)C)[C@@H](C)CC)C(=O)O` [noradrenaline transporter] (Biotin-HHLVAQRDIRQFQLQHWLAI-OH; C-terminus assumed), the Classification in test [3] (PDZ KIAA1719, PDZ Domain 5) is 2 (A450 nm 1-2); in test [3] (PDZ KIAA1719, PDZ Domain 6), 2 (A450 nm 1-2); in test [2] (PDZ GRIP1, PDZ Domain 6), 2 (A450 nm 1-2); in test [1] it was 1 (A450 nm 0-1).
As for “RNIEEVYVGGKQVVPFSSSV (Biotin-RNIEEVYVGGKQVVPFSSSV) [Nedasin (s-form)]”, the Classification in test [1] is given as 1 (A450 nm 0-1).
Still for that read-out and setting: to TQGFPGPATWRRISSLESEV belongs 1 (A450 nm 0-1).
With “LNETTETQRTLLNGDLQTSI (Biotin-LNETTETQRTLLNGDLQTSI) [SSTR2 (somatostatin recepor 2)]”, the Classification in test [3] (PDZ KIAA1719, PDZ Domain 6) was 1 (A450 nm 0-1); in test [2] (PDZ GRIP1, PDZ Domain 7), 1 (A450 nm 0-1).
`CC(C)C[C@H](NC(=O)[C@H](CC(=O)O)NC(=O)[C@H](CO)NC(=O)[C@H](CCC(=O)O)NC(=O)CNC(=O)[C@H](Cc1ccc(O)cc1)NC(=O)[C@H](CC(C)C)NC(=O)[C@H](C)NC(=O)[C@H](CO)NC(=O)[C@H](CO)NC(=O)[C@H](Cc1ccccc1)NC(=O)[C@H](C)NC(=O)[C@H](C)NC(=O)[C@H](Cc1ccc(O)cc1)NC(=O)[C@H](CC(=O)O)NC(=O)[C@H](CC(C)C)NC(=O)[C@H](C)NC(=O)CNC(=O)[C@@H]1CCCN1C(=O)[C@@H](NC(=O)CCCC[C@@H]1SC[C@@H]2NC(=O)N[C@@H]21)C(C)C)C(=O)O` [a-actinin 2] (Biotin-VPGALDYAAFSSALYGESDL-OH; C-terminus assumed): in test [1], the Classification is 1 (A450 nm 0-1).
`CSCC[C@H](NC(=O)[C@H](C)NC(=O)[C@H](CCCNC(=N)N)NC(=O)CNC(=O)[C@@H](NC(=O)[C@H](Cc1c[nH]c2ccccc12)NC(=O)[C@H](CCCNC(=N)N)NC(=O)CNC(=O)CCCC[C@@H]1SC[C@@H]2NC(=O)N[C@@H]21)[C@@H](C)O)C(=O)N[C@@H](CO)C(=O)N[C@@H](C)C(=O)N[C@@H](Cc1c[nH]c2ccccc12)C(=O)N[C@@H](CCCCN)C(=O)N1CCC[C@H]1C(=O)N[C@H](C(=O)N[C@@H](CCCNC(=N)N)C(=O)N[C@@H](CCCNC(=N)N)C(=O)N[C@@H](CCC(=O)O)C(=O)N[C@H](C(=O)N[C@@H](CCC(=O)O)C(=O)N[C@H](C(=O)O)C(C)C)[C@@H](C)O)[C@@H](C)O` [HPV E6 #35 (modified)] (Biotin-GRWTGRAMSAWKPTRRETEV-OH; C-terminus assumed): the Classification in test [3] (PDZ KIAA1719, PDZ Domain 5) is 1 (A450 nm 0-1); in test [2] (PDZ GRIP1, PDZ Domain 3), 2 (A450 nm 1-2); in test [2] (PDZ GRIP1, PDZ Domain 6), 2 (A450 nm 1-2); in test [1], 3 (A450 nm 2-3).
For the molecule `CC[C@H](C)[C@H](NC(=O)[C@H](CO)NC(=O)[C@@H](NC(=O)[C@H](Cc1ccccc1)NC(=O)[C@H](CO)NC(=O)CCCC[C@@H]1SC[C@@H]2NC(=O)N[C@@H]21)[C@@H](C)O)C(=O)N[C@@H](CC(C)C)C(=O)N[C@H](C(=O)N[C@@H](CS)C(=O)N[C@@H](Cc1c[nH]cn1)C(=O)N[C@@H](CCC(N)=O)C(=O)N[C@@H](CCCNC(=N)N)C(=O)N[C@@H](CCCNC(=N)N)C(=O)N[C@H](C(=O)N[C@@H](CCC(N)=O)C(=O)N[C@@H](CCCNC(=N)N)C(=O)N[C@@H](CCCCN)C(=O)N[C@@H](CCC(=O)O)C(=O)N[C@H](C(=O)N[C@H](C(=O)N[C@@H](C)C(=O)O)C(C)C)[C@@H](C)O)[C@@H](C)O)[C@@H](C)O` [GluR5-2 (rat)], the Classification in test [3] (PDZ KIAA1719, PDZ Domain 3) is reported as 1 (A450 nm 0-1).
As for `CC(C)C[C@H](NC(=O)[C@H](C)NC(=O)[C@@H](NC(=O)[C@H](CCC(=O)O)NC(=O)[C@H](CCCNC(=N)N)NC(=O)[C@H](CCCNC(=N)N)NC(=O)CNC(=O)[C@H](CCC(N)=O)NC(=O)[C@H](CC(C)C)NC(=O)[C@H](CCCNC(=N)N)NC(=O)CNC(=O)CNC(=O)[C@H](CCCNC(=N)N)NC(=O)[C@H](C)NC(=O)[C@H](CO)NC(=O)[C@H](CCCNC(=N)N)NC(=O)CNC(=O)CNC(=O)[C@H](C)NC(=O)[C@H](C)NC(=O)CCCC[C@@H]1SC[C@@H]2NC(=O)N[C@@H]21)[C@@H](C)O)C(=O)O` [HPV E6 33 (modified)] (Biotin-AAGGRSARGGRLQGRRETAL-OH; C-terminus assumed), in test [1], the Classification is on record as 1 (A450 nm 0-1).
Consider `CC[C@H](C)[C@H](NC(=O)[C@H](CCC(N)=O)NC(=O)[C@@H](NC(=O)[C@H](Cc1c[nH]cn1)NC(=O)[C@H](CCC(N)=O)NC(=O)[C@H](CC(=O)O)NC(=O)[C@H](CCC(=O)O)NC(=O)[C@H](CC(=O)O)NC(=O)[C@H](Cc1ccccc1)NC(=O)[C@@H]1CCCN1C(=O)[C@H](CCC(=O)O)NC(=O)[C@H](CC(N)=O)NC(=O)[C@H](CCC(=O)O)NC(=O)[C@@H]1CCCN1C(=O)[C@H](CC(=O)O)NC(=O)[C@H](CO)NC(=O)[C@H](CC(=O)O)NC(=O)CCCC[C@@H]1SC[C@@H]2NC(=O)N[C@@H]21)[C@@H](C)O)C(=O)N[C@H](C(=O)N[C@@H](CCCCN)C(=O)N[C@H](C(=O)O)C(C)C)[C@@H](C)O` [PTEN], for which the Classification in test [2] (PDZ GRIP1, PDZ Domain 3) is reported as 1 (A450 nm 0-1).
Regarding “A2AA_HUMAN (modified) (Biotin-HDFRRAFKKILARGDRKRIV; not fully specified)”, in test [3] (PDZ KIAA1719, PDZ Domain 4), the Classification is reported as 3 (A450 nm 2-3).
Turning to CKR5_HUMAN (ERASSVYTRSTGEQEISVGL), the Classification in test [3] (PDZ KIAA1719, PDZ Domain 2) is 1 (A450 nm 0-1); in test [3] (PDZ KIAA1719, PDZ Domain 5) it was 1 (A450 nm 0-1).
Take `CC(C)C[C@H](NC(=O)[C@H](CCCNC(=N)N)NC(=O)CNC(=O)CNC(=O)[C@H](CCCNC(=N)N)NC(=O)[C@H](C)NC(=O)[C@@H]1CCCN1C(=O)[C@H](CCCNC(=N)N)NC(=O)CNC(=O)CNC(=O)[C@@H](NC(=O)[C@H](C)NC(=O)CCCC[C@@H]1SC[C@@H]2NC(=O)N[C@@H]21)C(C)C)C(=O)N[C@@H](CCC(N)=O)C(=O)NCC(=O)N[C@@H](CCCNC(=N)N)C(=O)N[C@@H](CCCNC(=N)N)C(=O)N[C@@H](CCC(N)=O)C(=O)N[C@H](C(=O)N[C@@H](CCC(N)=O)C(=O)N[C@H](C(=O)O)C(C)C)[C@@H](C)O` [HPV E6 58 (modified)] (Biotin-AVGGRPARGGRLQGRRQTQV-OH; C-terminus assumed): in test [1], the Classification was 1 (A450 nm 0-1).

The record behind these values is patent US20050282743A1, “Molecular interactions in cells” (Arbor Vita Corporation, priority 2001, published 2005).
